32 molecules from patent US9227970B2, “Triazolopyridine compounds” (Hoffmann-La Roche Inc., priority 2011, dated 2016) can be followed below.

Chain of human PDE10A (Q9Y233 other isoform, or with tags, fused parts or gaps): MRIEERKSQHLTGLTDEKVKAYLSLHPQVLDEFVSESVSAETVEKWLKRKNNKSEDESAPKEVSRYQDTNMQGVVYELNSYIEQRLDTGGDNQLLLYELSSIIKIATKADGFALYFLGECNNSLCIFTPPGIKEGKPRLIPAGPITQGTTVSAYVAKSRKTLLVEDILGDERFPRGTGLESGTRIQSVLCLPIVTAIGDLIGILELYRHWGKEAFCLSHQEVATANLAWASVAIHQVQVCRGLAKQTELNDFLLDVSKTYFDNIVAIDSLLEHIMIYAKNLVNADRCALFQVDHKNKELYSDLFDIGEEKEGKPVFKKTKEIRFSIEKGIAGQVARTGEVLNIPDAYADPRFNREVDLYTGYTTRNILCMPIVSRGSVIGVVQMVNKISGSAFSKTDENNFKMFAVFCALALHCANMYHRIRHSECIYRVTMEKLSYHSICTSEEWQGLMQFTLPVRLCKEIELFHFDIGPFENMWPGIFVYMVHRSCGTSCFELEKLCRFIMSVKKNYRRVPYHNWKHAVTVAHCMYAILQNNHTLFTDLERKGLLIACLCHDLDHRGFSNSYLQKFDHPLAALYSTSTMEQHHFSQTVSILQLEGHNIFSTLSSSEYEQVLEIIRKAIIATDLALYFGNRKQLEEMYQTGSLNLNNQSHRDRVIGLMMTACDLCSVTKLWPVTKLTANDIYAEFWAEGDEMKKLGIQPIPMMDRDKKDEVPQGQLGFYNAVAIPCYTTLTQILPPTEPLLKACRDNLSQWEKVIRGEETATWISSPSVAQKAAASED

Test system in the first data set: not given
Test: not given
Conditions: not given
Turning to `Cn1ncc(C(=O)O)c1C(=O)Nc1ccc2nc(-c3ccccc3)nn2c1` [Example 1, 1-Methyl-5-(2-phenyl-[1,2,4]triazolo[1,5-a]pyridin-6-ylcarbamoyl)-1H-pyrazole-4-carboxylic acid], the melting point came out at 259 °C.

Consider `Cn1ncc(C(=O)N2CCCC2)c1C(=O)Nc1ccc2nc(-c3ccccc3)nn2c1` [Example 2, 2-Methyl-4-(pyrrolidine-1-carbonyl)-2H-pyrazole-3-carboxylic acid (2-phenyl-[1,2,4]triazolo[1,5-a]pyridin-6-yl)-amide], for which the melting point was 210 °C.

Turning to `Cn1ncc(C(=O)N2CC(F)C2)c1C(=O)Nc1ccc2nc(-c3ccccc3)nn2c1` [Example 6, 4-(3-Fluoro-azetidine-1-carbonyl)-2-methyl-2H-pyrazole-3-carboxylic acid (2-phenyl-[1,2,4]triazolo[1,5-a]pyridin-6-yl)-amide], the melting point amounted to 243 °C.

Consider `CN(C(=O)c1cnn(C)c1C(=O)Nc1ccc2nc(-c3ccccc3)nn2c1)C1CC1` [Example 8, 2-Methyl-2H-pyrazole-3,4-dicarboxylic acid 4-(cyclopropyl-methyl-amide) 3-[(2-phenyl-[1,2,4]triazolo[1,5-a]pyridin-6-yl)-amide]], for which the melting point is 106 °C.

In turn, `Cn1ncc(C(=O)N2CCOCC2)c1C(=O)Nc1ccc2nc(-c3cccnc3)nn2c1` [Example 9, 2-Methyl-4-(morpholine-4-carbonyl)-2H-pyrazole-3-carboxylic acid (2-pyridin-3-yl-[1,2,4]triazolo[1,5-a]pyridin-6-yl)-amide] gave a melting point of 229 °C.

Another data set deals with human PDE10A (Homo sapiens (Human), UniProt Q9Y233). Briefly: human PDE10A full length Scintillation Proximity Assay (SPA). To be noted: 50 nM cGMP + 50 nM [3H]-cGMP, 20 minutes at room temperature, read-out: PDE10A inhibition IC50. The data set is classed as biochemical. The procedure:
The following test was carried out in order to determine the activity of the compounds of the present invention. […] The human PDE10A full length assay was performed in 96-well micro titer plates. […] A range of concentrations of the potential inhibitor was used to generate data for calculating the concentration of inhibitor resulting in 50% of the effect (e.g. […] Non-specific activity was tested without the enzyme. The reaction was initiated by the addition of the substrate solution (cGMP and [^3H]-cGMP) and allowed to progress for 20 minutes at room temperature. The reaction was terminated by adding 25 μl of YSi-SPA scintillation beads (GE Healthcare, cat. # RPNQ0150) in 18 mM zinc sulphate solution (stop reagent). […] Afterwards, radioactive counts were measured on a Perkin Elmer Top-Count Scintillation plate reader.
`Cn1ncc(C(=O)O)c1C(=O)Nc1ccc2nc(-c3ccccc3)nn2c1` [Example 1, 1-Methyl-5-(2-phenyl-[1,2,4]triazolo[1,5-a]pyridin-6-ylcarbamoyl)-1H-pyrazole-4-carboxylic acid]: the IC50 came to 47.3 nM.

Consider `Cn1ncc(C(=O)N2CCCC2)c1C(=O)Nc1ccc2nc(-c3ccccc3)nn2c1` [Example 2, 2-Methyl-4-(pyrrolidine-1-carbonyl)-2H-pyrazole-3-carboxylic acid (2-phenyl-[1,2,4]triazolo[1,5-a]pyridin-6-yl)-amide], for which the IC50 turned out to be 1.2 nM.

`Cn1ncc(C(=O)N2CCC2)c1C(=O)Nc1ccc2nc(-c3cscn3)nn2c1` [Example 4, 4-(Azetidine-1-carbonyl)-1-methyl-N-(2-(thiazol-4-yl)-[1,2,4]triazolo[1,5-a]pyridin-6-yl)-1H-pyrazole-5-carboxamide]: the 50% inhibitory concentration (IC50) was 7.9 nM.

As to `Cn1ncc(C(=O)N2CC(F)C2)c1C(=O)Nc1ccc2nc(-c3ccccc3)nn2c1` [Example 6, 4-(3-Fluoro-azetidine-1-carbonyl)-2-methyl-2H-pyrazole-3-carboxylic acid (2-phenyl-[1,2,4]triazolo[1,5-a]pyridin-6-yl)-amide], the IC50 came out at 1.5 nM.

Take `CCN(C)C(=O)c1cnn(C)c1C(=O)Nc1ccc2nc(-c3ccccc3)nn2c1` [Example 7, 2-Methyl-2H-pyrazole-3,4-dicarboxylic acid 4-(ethyl-methyl-amide) 3-[(2-phenyl-[1,2,4]triazolo[1,5-a]pyridin-6-yl)-amide]]: the IC50 stood at 2.2 nM.

Take `CN(C(=O)c1cnn(C)c1C(=O)Nc1ccc2nc(-c3ccccc3)nn2c1)C1CC1` [Example 8, 2-Methyl-2H-pyrazole-3,4-dicarboxylic acid 4-(cyclopropyl-methyl-amide) 3-[(2-phenyl-[1,2,4]triazolo[1,5-a]pyridin-6-yl)-amide]]: the IC50 came out at 0.9 nM.

As for `Cn1ncc(C(=O)N2CCOCC2)c1C(=O)Nc1ccc2nc(-c3cccnc3)nn2c1` [Example 9, 2-Methyl-4-(morpholine-4-carbonyl)-2H-pyrazole-3-carboxylic acid (2-pyridin-3-yl-[1,2,4]triazolo[1,5-a]pyridin-6-yl)-amide], the IC50 was 13.2 nM.

On to `Cn1ncc(C(=O)N2CCOCC2)c1C(=O)Nc1ccc2nc(N3CCOCC3)nn2c1` [Example 14, 2-Methyl-4-(morpholine-4-carbonyl)-2H-pyrazole-3-carboxylic acid (2-morpholin-4-yl-[1,2,4]triazolo[1,5-a]pyridin-6-yl)-amide], for which the IC50 is 63.8 nM.

With `CCN(C)C(=O)c1cnn(C)c1C(=O)Nc1ccc2nc(N3CCOCC3)nn2c1` [Example 16, 2-Methyl-2H-pyrazole-3,4-dicarboxylic acid 4-(ethyl-methyl-amide) 3-[(2-morpholin-4-yl-[1,2,4]triazolo[1,5-a]pyridin-6-yl)-amide]], the IC50 came out at 30.8 nM.

As to `Cn1ncc(C(=O)N2CC(F)C2)c1C(=O)Nc1ccc2nc(N3CCOCC3)nn2c1` [Example 17, 4-(3-Fluoro-azetidine-1-carbonyl)-2-methyl-2H-pyrazole-3-carboxylic acid (2-morpholin-4-yl-[1,2,4]triazolo[1,5-a]pyridin-6-yl)-amide], the IC50 turned out to be 26.5 nM.

For the molecule `CN(C)c1nc2ccc(NC(=O)c3c(C(=O)N4CCCC4)cnn3C)cn2n1` [Example 21, 2-Methyl-4-(pyrrolidine-1-carbonyl)-2H-pyrazole-3-carboxylic acid (2-dimethylamino-[1,2,4]triazolo[1,5-a]pyridin-6-yl)-amide], the IC50 came to 28.6 nM.

Regarding `CCN(C)C(=O)c1cnn(C)c1C(=O)Nc1ccc2nc(N(C)C)nn2c1` [Example 22, 2-Methyl-2H-pyrazole-3,4-dicarboxylic acid 3-[(2-dimethylamino-[1,2,4]triazolo[1,5-a]pyridin-6-yl)-amide] 4-(ethyl-methyl-amide)], the IC50 stood at 33.5 nM.

As to `CN(C)c1nc2ccc(NC(=O)c3c(C(=O)N4CC(F)C4)cnn3C)cn2n1` [Example 23, 4-(3-Fluoro-azetidine-1-carbonyl)-2-methyl-2H-pyrazole-3-carboxylic acid (2-dimethylamino-[1,2,4]triazolo[1,5-a]pyridin-6-yl)-amide], the IC50 worked out at 25 nM.

Take `CN(C)c1nc2ccc(NC(=O)c3c(C(=O)N(C)C4CC4)cnn3C)cn2n1` [Example 24, 2-Methyl-2H-pyrazole-3,4-dicarboxylic acid 4-(cyclopropyl-methyl-amide) 3-[(2-dimethylamino-[1,2,4]triazolo[1,5-a]pyridin-6-yl)-amide]]: the IC50 was 5.3 nM.

Turning to `COc1ncc(C2CC2)nc1C(=O)Nc1ccc2nc(-c3ccccc3)nn2c1` [Example 25, 6-cyclopropyl-3-methoxy-N-(2-phenyl-[1,2,4]triazolo[1,5-a]pyridin-6-yl)pyrazine-2-carboxamide], the IC50 was found to be 17 nM.

For the molecule `CCN(CC)c1nc2ccc(NC(=O)c3c(C(=O)N4CCOCC4)cnn3C)cn2n1` [Example 26, 2-Methyl-4-(morpholine-4-carbonyl)-2H-pyrazole-3-carboxylic acid (2-diethylamino-[1,2,4]triazolo[1,5-a]pyridin-6-yl)-amide], the IC50 was 21.8 nM.

Turning to `CCN(CC)c1nc2ccc(NC(=O)c3c(C(=O)N4CCC4)cnn3C)cn2n1` [Example 28, 2-Methyl-4-(azetitine-4-carbonyl)-2H-pyrazole-3-carboxylic acid (2-diethylamino-[1,2,4]triazolo[1,5-a]pyridin-6-yl)-amide], the IC50 was 3.3 nM.

In the case of `CCN(C)C(=O)c1cnn(C)c1C(=O)Nc1ccc2nc(N(CC)CC)nn2c1` [Example 29, 2-Methyl-2H-pyrazole-3,4-dicarboxylic acid 3-[(2-diethylamino-[1,2,4]triazolo[1,5-a]pyridin-6-yl)-amide] 4-(ethyl-methyl-amide)], the IC50 came to 9.9 nM.

`CCN(CC)C(=O)c1cnn(C)c1C(=O)Nc1ccc2nc(N(CC)CC)nn2c1` [Example 30, 2-Methyl-2H-pyrazole-3,4-dicarboxylic acid 4-diethylamide 3-[(2-diethylamino-1,2,4]triazolo[1,5-a]pyridin-6-yl)-amide]: the IC50 worked out at 19.1 nM.

In the case of `CCN(CC)c1nc2ccc(NC(=O)c3c(C(=O)N(C)C4CC4)cnn3C)cn2n1` [Example 31], the IC50 turned out to be 2.3 nM.

In the case of `Cn1ncc(C(=O)N2CCOCC2)c1C(=O)Nc1ccc2nc(N3CCCC3)nn2c1` [Example 32, 2-Methyl-4-(morpholine-4-carbonyl)-2H-pyrazole-3-carboxylic acid (2-pyrrolidin-1-yl-[1,2,4]triazolo[1,5-a]pyridin-6-yl)-amide], the IC50 came to 2.5 nM.

On to `Cn1ncc(C(=O)N2CCC2)c1C(=O)Nc1ccc2nc(N3CCCC3)nn2c1` [Example 33], for which the IC50 was 0.8 nM.

Take `Cn1ncc(C(=O)N2CCCC2)c1C(=O)Nc1ccc2nc(N3CCCC3)nn2c1` [Example 34, 2-Methyl-4-(pyrrolidine-1-carbonyl)-2H-pyrazole-3-carboxylic acid (2-pyrrolidin-1-yl-[1,2,4]triazolo[1,5-a]pyridin-6-yl)-amide]: the IC50 amounted to 1.2 nM.

With `CN(C(=O)c1cnn(C)c1C(=O)Nc1ccc2nc(N3CCCC3)nn2c1)C1CC1` [Example 35], the IC50 stood at 1 nM.

Regarding `CCN(C)C(=O)c1cnn(C)c1C(=O)Nc1ccc2nc(N3CCCC3)nn2c1` [Example 36], the IC50 stood at 1.9 nM.

Regarding `CCN(CC)C(=O)c1cnn(C)c1C(=O)Nc1ccc2nc(N3CCCC3)nn2c1` [Example 37], the IC50 was determined as 3.5 nM.

For the molecule `CCN(CC)C(=O)c1cnn(C)c1C(=O)Nc1ccc2nc(N3CCC(OC)C3)nn2c1` (stereo not shown) [Example 38], the IC50 came to 29.4 nM.

Take `COC1CCN(c2nc3ccc(NC(=O)c4c(C(=O)N5CCOCC5)cnn4C)cn3n2)C1` (stereo not shown) [Example 39, 2-Methyl-4-(morpholine-4-carbonyl)-2H-pyrazole-3-carboxylic acid [2-(3-methoxy-pyrrolidin-1-yl)-[1,2,4]triazolo[1,5-a]pyridin-6-yl]-amide]: the concentration for half-maximal inhibition (IC50) turned out to be 23.1 nM.

Take `CCN(C)C(=O)c1cnn(C)c1C(=O)Nc1ccc2nc(N3CCC(OC)C3)nn2c1` (stereo not shown) [Example 40, 2-Methyl-2H-pyrazole-3,4-dicarboxylic acid 4-(ethyl-methyl-amide) 3-{[2-(3-methoxy-pyrrolidin-1-yl)-[1,2,4]triazolo[1,5-a]pyridin-6-yl]-amide}]: the IC50 came to 17 nM.

`COC1CCN(c2nc3ccc(NC(=O)c4c(C(=O)N(C)C5CC5)cnn4C)cn3n2)C1` (stereo not shown) [Example 41, 2-Methyl-2H-pyrazole-3,4-dicarboxylic acid 4-(cyclopropyl-methyl-amide) 3-{[2-(3-methoxy-pyrrolidin-1-yl)-[1,2,4]triazolo[1,5-a]pyridin-6-yl]-amide}]: the IC50 turned out to be 3.5 nM.

For the molecule `COC1CCN(c2nc3ccc(NC(=O)c4c(C(=O)N5CCCC5)cnn4C)cn3n2)C1` (stereo not shown) [Example 42, 2-Methyl-4-(pyrrolidine-1-carbonyl)-2H-pyrazole-3-carboxylic acid [2-(3-methoxy-pyrrolidin-1-yl)-[1,2,4]triazolo[1,5-a]pyridin-6-yl]-amide], the IC50 turned out to be 7.5 nM.

With `COC1CCN(c2nc3ccc(NC(=O)c4c(C(=O)N5CCC5)cnn4C)cn3n2)C1` (stereo not shown) [Example 43, 4-(Azetidine-1-carbonyl)-2-methyl-2H-pyrazole-3-carboxylic acid [2-(3-methoxy-pyrrolidin-1-yl)-[1,2,4]triazolo[1,5-a]pyridin-6-yl]-amide], the IC50 worked out at 4.9 nM.
